The values below come from PubChem BioAssay (NCI).

SMILES strings stand for the structures.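 Values below derive from 48-hour exposures of cells grown in 96-well plates, with endpoints linearly interpolated between the two concentrations bracketing the appropriate inhibition level. The concentration for 50% growth inhibition is given as GI50. TGI is the concentration that stops growth completely.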

Some test systems named below: SNB-75 CNS; MALME-3M melanoma; HT29 colon; UO-31 renal; A498 renal; 786-0 renal; OVCAR-5 ovarian; EKVX NSCLC; COLO 205 colon.
Holding throughout (assay): inhibition of tumour cell growth, NCI panel, 48 h

With `Cc1ccc(S(=O)(=O)OC(C=O)C(O)C(O)COC(c2ccccc2)(c2ccccc2)c2ccccc2)cc1` (stereo unspecified), the TGI in the assay with SNB-75 CNS turned out to be 29.4 µM; in the assay with MALME-3M melanoma, 33.7 µM; with HT29 colon it was 24.9 µM; in the assay with UO-31 renal, 30.4 µM; with A498 renal, 32.6 µM; in the assay with 786-0 renal, 27.3 µM. Moreover, the figures for the TGI with OVCAR-5 ovarian and with EKVX NSCLC were 34.7 µM and 34.5 µM, respectively.
In the case of `CCN1N=CSC12C(=O)N(c1ccccc1)C(=O)N2c1ccccc1` (stereo unspecified), the TGI in the assay on SNB-75 CNS, in the assay on MALME-3M melanoma, in the assay on HT29 colon, with UO-31 renal, in the assay on A498 renal and with COLO 205 colon was above 100 µM each time. In addition, the TGI in the assay on 786-0 renal and with EKVX NSCLC was above 100 µM in each case.
As for `CC(=O)OCC1OC(n2cnc3c(I)nc(I)nc32)C(OC(C)=O)C1OC(C)=O` (stereo unspecified), the TGI came to 30.2 µM in the assay with SNB-75 CNS; 33.5 µM with MALME-3M melanoma; 19.7 µM in the assay with HT29 colon; 31.5 µM in the assay on UO-31 renal; 38.3 µM with A498 renal; 27.8 µM in the assay with 786-0 renal. For the same compound, the TGI stood at 35.1 µM in the assay with OVCAR-5 ovarian and 33.3 µM in the assay on EKVX NSCLC.
Regarding `CC(=O)[CH-]C(=O)c1ccccc1.CC(=O)[CH-]C(=O)c1ccccc1.[O-]Cc1cccs1.[O-]Cc1cccs1.[Ti+4]`, the GI50 in the assay with SNB-75 CNS was 73.1 µM; with MALME-3M melanoma it was above 100 µM; with HT29 colon it was 17.5 µM; in the assay on UO-31 renal, above 100 µM; in the assay on A498 renal it was above 100 µM; with 786-0 renal, above 100 µM. Besides, the GI50 with OVCAR-5 ovarian was 38.2 µM; in the assay on EKVX NSCLC it was 37.4 µM. Further, the TGI with SNB-75 CNS is above 100 µM; with MALME-3M melanoma, above 100 µM; in the assay on HT29 colon it was 46.6 µM; with UO-31 renal, above 100 µM; with A498 renal, above 100 µM; in the assay with 786-0 renal it was above 100 µM. Further, the TGI in the assay on OVCAR-5 ovarian and in the assay with EKVX NSCLC was above 100 µM throughout.
For `Clc1ccc(C2=NN(c3ccccc3)C3c4cc(Br)ccc4OCC23)cc1` (stereo unspecified), the TGI in the assay on SNB-75 CNS, with MALME-3M melanoma, in the assay on HT29 colon, with UO-31 renal, with A498 renal and with COLO 205 colon was above 100 µM in each case. For the same compound, the TGI in the assay on 786-0 renal, with OVCAR-5 ovarian and in the assay on EKVX NSCLC was above 100 µM throughout.
For `COc1ccc(Nc2nc3c(N)cc(C(F)(F)F)cc3nc2-c2ccccc2)cc1`, the TGI with SNB-75 CNS is 82.2 µM; in the assay on MALME-3M melanoma it was above 100 µM; with UO-31 renal it was above 100 µM; with A498 renal, above 100 µM; in the assay on COLO 205 colon, above 100 µM; with 786-0 renal, above 100 µM. Also, the TGI with OVCAR-5 ovarian and in the assay on EKVX NSCLC was above 100 µM in each case.
Turning to `COC(=O)C12C3C=CC(O3)C1C1C=CC2O1` (stereo unspecified), the TGI in the assay on MALME-3M melanoma, in the assay on HT29 colon, in the assay with UO-31 renal, in the assay with COLO 205 colon, with 786-0 renal and in the assay on OVCAR-5 ovarian was above 100 µM throughout. For the same compound, in the assay on EKVX NSCLC, the TGI was above 100 µM.
As to `COC1C2c3ccccc3C(C#N)(Cc3ccc4c(c32)OCO4)N1C(=O)c1ccccc1` (stereo unspecified), the TGI was above 100 µM in the assay on SNB-75 CNS; above 100 µM with MALME-3M melanoma; above 100 µM in the assay with HT29 colon; above 100 µM in the assay with UO-31 renal; 82.6 µM in the assay with COLO 205 colon; above 100 µM in the assay on 786-0 renal. The TGI with OVCAR-5 ovarian and in the assay with EKVX NSCLC was above 100 µM throughout.
Turning to `Cc1cc(N(CCC#N)CCC#N)ccc1N=Nc1ccc([N+](=O)[O-])cc1`, the TGI in the assay with SNB-75 CNS was above 10 µM; in the assay with MALME-3M melanoma it was above 100 µM; in the assay with HT29 colon, above 100 µM; in the assay on UO-31 renal, above 100 µM; in the assay on A498 renal, above 100 µM; with COLO 205 colon it was above 100 µM. Moreover, the TGI in the assay on 786-0 renal, in the assay with OVCAR-5 ovarian and with EKVX NSCLC was above 100 µM in each case.
`Fc1cccc(C=NC23CC4CC(CC(C4)C2)C3)c1`: the TGI in the assay with SNB-75 CNS, in the assay with MALME-3M melanoma, with HT29 colon, in the assay with UO-31 renal, with A498 renal and with COLO 205 colon was above 100 µM throughout. Besides, the TGI in the assay with 786-0 renal, in the assay on OVCAR-5 ovarian and in the assay on EKVX NSCLC was above 100 µM throughout.
`C=C1C(=O)C23C(O)C1CCC2C12CO[C@]3(O)[C@@H](O)C1C(C)(C)CCC2O` (stereo partly specified): the TGI is 29.3 µM in the assay with SNB-75 CNS; 17.5 µM in the assay on MALME-3M melanoma; 30.3 µM in the assay with HT29 colon; 31.1 µM in the assay with UO-31 renal; 36.5 µM in the assay on A498 renal; 7.87 µM in the assay with COLO 205 colon. Besides, the figures for the TGI in the assay on 786-0 renal, with OVCAR-5 ovarian and with EKVX NSCLC were 25.1 µM, 34.5 µM and 28.9 µM, respectively.
For the compound `COc1cc(-c2[nH]ncc2CCCC(=O)Nc2ccccc2[N+](=O)[O-])ccc1O`, the TGI was above 100 µM with SNB-75 CNS; 48.9 µM in the assay with MALME-3M melanoma; above 100 µM in the assay on HT29 colon; above 100 µM in the assay on UO-31 renal; above 100 µM with A498 renal; above 100 µM with COLO 205 colon. The TGI with 786-0 renal, in the assay on OVCAR-5 ovarian and in the assay on EKVX NSCLC was above 100 µM each time.
For `CCOc1ccc(NC(=O)/C(=C/c2ccccc2)C(C)=O)cc1`, the TGI in the assay with SNB-75 CNS was 17.9 µM; with MALME-3M melanoma it was 31.6 µM; in the assay with HT29 colon it was 33.3 µM; in the assay on UO-31 renal, 21.6 µM; in the assay with A498 renal, 35.3 µM; with COLO 205 colon it was 33.1 µM. In addition, the TGI with 786-0 renal is 24.8 µM; in the assay with OVCAR-5 ovarian, 36.5 µM; in the assay on EKVX NSCLC it was 35.4 µM.
Take `COc1ccccc1NS(=O)(=O)c1cc(C(C)(C)C)ccc1OCCOc1ccc(C(C)(C)C)cc1S(=O)(=O)Nc1ccccc1OC`: the TGI with SNB-75 CNS, in the assay on MALME-3M melanoma, in the assay with HT29 colon, with UO-31 renal, with A498 renal and with COLO 205 colon was above 100 µM each time. Also, the TGI in the assay with 786-0 renal, in the assay on OVCAR-5 ovarian and in the assay with EKVX NSCLC was above 100 µM each time.
